For 13 molecules, Ki and IC50 results are on record in ChEMBL document CHEMBL5236613, “Exploration of 1,2,3-triazole linked benzenesulfonamide derivatives as isoform selective inhibitors of human carbonic anhydrase” (Bioorg Med Chem, 2023).

The target in one assay is Carbonic anhydrase 9 (Homo sapiens, UniProt Q16790). The experiment in a line: Inhibition of human transmembrane carbonic anhydrase 9 using 4-nitrophenyl acetate as substrate assessed as inhibition constant by spectrophotometric analysis.
In a further assay the test system is A549. The experiment in a line: cells. Particulars: Homo sapiens, A549, 24 h.

Description for A549: Antiproliferative activity against human A549 cells assessed as inhibition of cell growth incubated for 24 hrs by MTT assay

A word on the Ki: it is the dissociation constant of the complex between target and ligand, obtained from inhibition or displacement. By IC50 is commonly meant the point on the concentration scale where inhibition reaches its midpoint. A higher IC50 goes with lower potency. As to `NS(=O)(=O)c1ccc(-n2cc(COC(=O)c3ccc4c(c3)C(=O)N(c3ccccc3Cl)C4=O)nn2)cc1`, the Ki on Carbonic anhydrase 9 was found to be 0.0186 µM. Also, the IC50 with A549 was found to be 290 µM.
With `Cc1cccc(C)c1N1C(=O)c2ccc(C(=O)OCc3cn(-c4ccc(S(N)(=O)=O)cc4)nn3)cc2C1=O`, on Carbonic anhydrase 9, the Ki came to 0.0245 µM. This molecule came in with an IC50 in the assay with A549 of 253 µM.
As to `NS(=O)(=O)c1ccc(-n2cc(COC(=O)c3ccc4c(c3)C(=O)N(c3cccc(F)c3)C4=O)nn2)cc1`, the Ki on Carbonic anhydrase 9 came to 0.0229 µM. In the assay with A549, the midpoint of inhibition, the IC50, lay at 231 µM.
In the case of `CCCCN1C(=O)c2ccc(C(=O)OCc3cn(-c4ccc(S(N)(=O)=O)cc4)nn3)cc2C1=O`, the inhibitory constant (Ki) at Carbonic anhydrase 9 was 0.035 µM. The same molecule registered an IC50 with A549 of 199 µM.
For `CCCCCCN1C(=O)c2ccc(C(=O)OCc3cn(-c4ccc(S(N)(=O)=O)cc4)nn3)cc2C1=O` the same measures were 0.0752 µM and 161 µM.
For `CCCCCCCCN1C(=O)c2ccc(C(=O)OCc3cn(-c4ccc(S(N)(=O)=O)cc4)nn3)cc2C1=O` the same measures were 0.05 µM and 235 µM.
Turning to `NS(=O)(=O)c1ccc(-n2cc(COC(=O)c3ccc4c(c3)C(=O)N(c3cccc5ccccc35)C4=O)nn2)cc1`, the Ki on Carbonic anhydrase 9 stood at 0.0253 µM. This molecule also gave an IC50 in the assay with A549 of 278 µM.
Regarding `NS(=O)(=O)c1ccc(-n2cc(COC(=O)c3ccc4c(c3)C(=O)N(c3ccccc3I)C4=O)nn2)cc1`, the Ki at Carbonic anhydrase 9 was 0.0353 µM. The same molecule showed an IC50 in the assay on A549 of 258 µM.
With `NS(=O)(=O)c1ccc(-n2cc(COC(=O)c3ccc4c(c3)C(=O)N(c3ccccc3)C4=O)nn2)cc1`, at Carbonic anhydrase 9, the inhibition constant Ki came to 0.0183 µM. For the same molecule, the IC50 in the assay with A549 came to 300 µM.
In the case of `NS(=O)(=O)c1ccc(-n2cc(COC(=O)c3ccc4c(c3)C(=O)N(Cc3ccc5c(c3)OCO5)C4=O)nn2)cc1`, the Ki at Carbonic anhydrase 9 was 0.0239 µM. This molecule also showed an IC50 in the assay with A549 of 130 µM.
For `N#Cc1ccc(N2C(=O)c3ccc(C(=O)OCc4cn(-c5ccc(S(N)(=O)=O)cc5)nn4)cc3C2=O)cc1` the same measures were 0.0286 µM and 266 µM.
For the molecule `NS(=O)(=O)c1ccc(-n2cc(COC(=O)c3ccc4c(c3)C(=O)N(c3ccc(Cl)cc3)C4=O)nn2)cc1`, the Ki on Carbonic anhydrase 9 came to 0.0489 µM. In addition, half-maximal inhibition in the assay with A549 (IC50) required 352 µM.
The molecule `COc1cccc2c1C(=O)c1c(O)c3c(c(O)c1C2=O)C[C@@](O)(C(=O)CO)C[C@@H]3O[C@H]1C[C@H](N)[C@H](O)[C@H](C)O1` [DOXORUBICIN] registered an IC50 in the assay with A549 of 10.8 µM.
